Test results reported in patent US10125134B2 (Mirati Therapeutics, Inc., priority 2016, dated 2018).
Read-outs that look alike come from different tables or passages of the source.

Key:
KRas G12C = KRas G12C (Homo sapiens, UniProt P01116, C118S/C51S/C80L/G12C); assay: KRas G12C Modification Assay (LCMS detection of covalent adduct); type: binding; settings: normalized percent of control; tested at 5 μM concentration for 3 hours
Method in brief: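 Covalent modification was read by reverse-phase LC/MS of intact protein after compound exposure, each reaction stopped at its time point with 25 mM acetic acid. Unmodified-protein signal, taken as percent of total, was normalised to untreated protein and reported as POC.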

[1] = tested on: NCI-H358 cells (express KRas G12C), Phospho-ERK; assay: Cellular inhibition of KRas G12C: Phospho-ERK in NCI-H358 cells; type: cell-based; settings: Homo sapiens, pERK(Thr202/Tyr204) normalized with GAPDH, NCI-H358 cells, 3 hours, read-out: IC50
Method in brief: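 IC50 derived by 4-parameter fit of GAPDH-normalized pERK(Thr202/Tyr204) signal, as percent of DMSO control. Signal came from in-cell immunodetection with infrared secondaries after 3 h compound exposure of KRas G12C NCI-H358 cells at 0.5% DMSO.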

## C=CC(=O)N1CCN(c2nc(OC[C@@H]3CCCN3C)nc3c2CCN(c2c(C)c(O)cc4ccccc24)C3)CC1 [Example 175, (S)-1-(4-(7-(3-hydroxy-2-methylnaphthalen-1-yl)-2-((1-methylpyrrolidin-2-yl)methoxy)-5,6,7,8-tetrahydropyrido[3,4-d]pyrimidin-4-yl)piperazin-1-yl)prop-2-en-1-one]
KRas G12C
  POC: C (“C”>50% POC)
[1]
  IC50: 0.1 to 1000 nM

## C=CC(=O)N1CCN(c2nc(OCCN(C)C)nc3c2CCN(c2cc(O)cc4ccccc24)C3)C[C@@H]1CC#N [Example 176, 2-[(2S)-4-[2-[2-(dimethylamino)ethoxy]-7-(3-hydroxy-1-naphthyl)-6,8-dihydro-5H-pyrido[3,4-d]pyrimidin-4-yl]-1-prop-2-enoyl-piperazin-2-yl]acetonitrile]
KRas G12C
  POC: C (“C”>50% POC)
[1]; NCI-H358, 3 h
  IC50: 0.1 to 1000 nM

## C=CC(=O)N1CCN(c2nc(OC[C@@H]3CCN(C)C3)nc3c2CCN(c2cccc4ccccc24)C3)CC1CC#N (stereo partly drawn) [Example 177, 2-[4-[2-[[(3R)-1-methylpyrrolidin-3-yl]methoxy]-7-(1-naphthyl)-6,8-dihydro-5H-pyrido[3,4-d]pyrimidin-4-yl]-1-prop-2-enoyl-piperazin-2-yl]acetonitrile]
KRas G12C
  POC: C (“C”>50% POC)
[1]
  IC50: 0.1 to 1000 nM

## C=CC(=O)N1CCN(c2nc(OC[C@H]3CCCN3C)nc3c2CCN(c2cc(O)cc4ccccc24)C3)CC1CC#N (stereo partly drawn) [Example 178, 2-[4-[7-(3-hydroxy-1-naphthyl)-2-[[(2R)-1-methylpyrrolidin-2-yl]methoxy]-6,8-dihydro-5H-pyrido[3,4-d]pyrimidin-4-yl]-1-prop-2-enoyl-piperazin-2-yl]acetonitrile]
KRas G12C
  POC: C (“C”>50% POC)
[1]; NCI-H358, 3 h
  IC50: 0.1 to 1000 nM

## C=CC(=O)N1CCN(c2nc(OC[C@@H]3CCN(C)C3)nc3c2CCN(c2cc(O)cc4ccccc24)C3)CC1CC#N (stereo partly drawn) [Example 179, 2-[4-[7-(3-hydroxy-1-naphthyl)-2-[[(3R)-1-methylpyrrolidin-3-yl]methoxy]-6,8-dihydro-5H-pyrido[3,4-d]pyrimidin-4-yl]-1-prop-2-enoyl-piperazin-2-yl]acetonitrile]
KRas G12C
  POC: C (“C”>50% POC)
[1]; NCI-H358, 3 h
  IC50: 0.1 to 1000 nM

## C=CC(=O)N1CCN(c2nc(OCCCN3CCOCC3)nc3c2CCN(c2c(C(F)(F)F)ccc4[nH]ncc24)C3)CC1 [Example 180, 1-[4-[2-(3-morpholinopropoxy)-7-[5-(trifluoromethyl)-1H-indazol-4-yl]-6,8-dihydro-5H-pyrido[3,4-d]pyrimidin-4-yl]piperazin-1-yl]prop-2-en-1-one]
KRas G12C
  POC: C (“C”>50% POC)
[1]
  IC50: 0.1 to 1000 nM

## C=CC(=O)N1CCN(c2nc(OCCCN3C[C@@H]4C[C@H]3CO4)nc3c2CCN(c2c(C)ccc4[nH]ncc24)C3)CC1 [Example 181, 1-(4-(2-(3-((1 S,4S)-2-oxa-5-azabicyclo[2.2.1]heptan-5-yl)propoxy)-7-(5-methyl-1H-indazol-4-yl)-5,6,7,8-tetrahydropyrido[3,4-d]pyrimidin-4-yl)piperazin-1-yl)prop-2-en-1-one]
KRas G12C
  POC: C (“C”>50% POC)
[1]
  IC50: > 1000 nM

## C=CC(=O)N1CCN(c2nc(OC[C@@H]3CCCN3C)nc3c2CCN(c2cc(O)cc4ccccc24)C3)CC1CC#N (stereo partly drawn) [Example 182, 2-[4-[7-(3-hydroxy-1-naphthyl)-2-[[(2S)-1-methylpyrrolidin-2-yl]methoxy]-6,8-dihydro-5H-pyrido[3,4-d]pyrimidin-4-yl]-1-prop-2-enoyl-piperazin-2-yl]acetonitrile]
KRas G12C
  POC: C (“C”>50% POC)
[1]
  IC50: 0.1 to 1000 nM

## C=CC(=O)N1CCN(c2nc(OC[C@H]3CCCN3C)nc3c2CCN(c2cccc4ccccc24)C3)CC1CC#N (stereo partly drawn) [Example 183, 2-[4-[2-[[(2R)-1-methylpyrrolidin-2-yl]methoxy]-7-(1-naphthyl)-6,8-dihydro-5H-pyrido[3,4-d]pyrimidin-4-yl]-1-prop-2-enoyl-piperazin-2-yl]acetonitrile]
KRas G12C
  POC: C (“C”>50% POC)
[1]
  IC50: 0.1 to 1000 nM
